# Patent US8153103B2, “Conjugates of photo-activatable dyes” (Board of Regents, The University of Texas System, priority 2008, dated 2012)
# Test system: gap junction channels
# Assay: Cell-cell dye transfer after local uncaging in C. elegans embryos (control experiments)
# Assay type: in vivo
# Conditions: α-GA 25 μM, 4-cell embryo, eggshell thinned with bleach and chitinase, ABp uncaged
# Excerpt: To study the pattern of cell-cell coupling during early development, embryos were collected from injected worms and subjected to differential interference contrast (“DIC”) imaging. Three to four hours after injection, early embryos were collected from injected worms by cutting the worms near the uterus. Labeled embryos were transferred onto a 2% agar pad, covered with a coverslip, and mounted on an inverted fluorescence microscope (Axiovert 200M, Carl Zeiss, Peabody, Mass.). During uncaging and imaging, motorized filter wheels (Ludl Electronics Products, Hawthorne, N.Y.) were employed to select excitation and emission wavelengths by passing light from a Xeon lamp (75 W) through bandpass filters (Chroma Technology, Rockingham, Vt.). A neutral density filter was also added to the light path to reduce the excitation light intensity by about 70%. The typical UV uncaging duration is about 2 seconds. Bandpass filters were chosen for UV uncaging (360±20 nm), coumarin imaging (excitation 425±5 nm, emission 460±15 nm), GFP imaging (excitation 488±7.5 nm, emission 530±20 nm), and rhodamine imaging (excitation 560±20 nm, emission 615±30 nm). A customized multiple path dichroic mirror was used for the UV uncaging and 3-color imaging. Epifluorescence was collected with a cooled CCD camera (ORCA-ER, Hamamatsu, Bridgewater, N.J.) under the control of OpenLab software (Improvision, Waltham, Mass.). […]
smiles,measurement,value
"CC1(C)[C@@H](O)CC[C@]2(C)[C@H]3C(=O)C=C4[C@H]5C[C@@](C)(C(=O)O)CC[C@]5(C)CC[C@@]4(C)[C@]3(C)CC[C@@H]12 [α-GA, 18α-glycyrrhetinic acid]",cell-cell dye transfer after uncaging dextran-CANPE-HCC in presence of blocker,dye transfer was not observed
